Measured values taken from US20240100120A1 (priority 2019, published 2024).
Where a SMILES comes first, the peptide text is derived from it. Bridges are numbered along the chain shown (N, C = ends). [ ]: non-standard residue; d: D form. Orn = NCCC[C@H](N)C(=O)O; Mpa = O=C(O)CCS

Tests used:
[1] = system: fentanyl OIRD (integrated phrenic nerve activity, iPNA); details: rat, in vivo, iv
[2] = system: opioid self-administration; details: Kovacs G L, et al. Life Sci. 1985; cited from earlier work
hypopnea and apnea = details: human sleep apnea patients; cited from earlier work
[3] = system: integrated phrenic nerve activity (iPNA); opioid OIRD; details: rat, in vivo
[4] = system: side effects (e.g., respiratory depression) of opioid receptor agonists; details: oxytocin 0.32 mg/kg subcutaneously; heroin 0.1-1.0 mg/kg; rhesus monkeys

## CCOc1ccc(C[C@H]2NC(=O)CCSSC[C@@H](C(=O)N3CCC[C@H]3C(=O)N[C@@H](CCCN)C(=O)NCC(N)=O)NC(=O)[C@H](CC(N)=O)NC(=O)[C@H]([C@@H](C)O)NC(=O)[C@H]([C@@H](C)CC)NC2=O)cc1 [atosiban] ([Mpa][dY](Et)ITNCP[Orn]G-NH2; disulfide 1-6)
[1]
  effect of OXTN receptor antagonism on OXTN reversal of FENT OIRD: prevents OXTN (5 μg/kg) reversal of FENT OIRD

## CC[C@H](C)[C@@H]1NC(=O)[C@H](Cc2ccc(O)cc2)NC(=O)[C@@H](N)CSSC[C@@H](C(=O)N2CCC[C@H]2C(=O)N[C@@H](CC(C)C)C(=O)NCC(N)=O)NC(=O)[C@H](CC(N)=O)NC(=O)[C@H](CCC(N)=O)NC1=O [oxytocin]
[2]
  opioid self-administration: reduces opioid self-administration
Hypopnea and apnea
  frequency of hypopnea, apnea and hypopnea duration and related arousal: improved
[3]
  reduction of OIRD by OXT delivered into the PVN: does not reduce OIRD
[4]
  reversal of side effects (e.g., respiratory depression) of opioid receptor agonists: reversed

## (Phenylacl-D-Tyr(Et)2,Lys6,Arg8,des-Gly9)-vasopressin trifluoroacetate [V1aRX]
[1]
  effect of V1aR antagonism on OXTN reversal of OIRD: significantly enhances reversal
  effect of V1aR antagonism on high dose OXTN reversal of OIRD: efficacy is restored
